Laboratory results published in patent US20060293351A1, “Promotion of wound healing” (priority 1999, published 2006).

Tests used:
[1] = test system: incision at tumor implantation site; assay: Wound healing in nude mice implanted with C6 rat glioma tumors; format: in vivo, CD1-nude mice
Procedure: Tumors from C6 rat glioma cells were prepared and implanted in nude mice. Certain mice received Halofuginone, either orally or through i.p. (intra-peritoneal) administration. […] The experimental method was as follows. C6 rat glioma cells were cultured in DMEM supplemented with 5% FCS, 50 units/ml penicillin, 50 micrograms/ml streptomycin and 125 […]. Aggregation of cells into small spheroids of about 150 microns was initiated by replating cells from confluent cultures onto agar-coated bacteriological plates. After 4-5 days in culture, the suspension was transferred to a 250 ml spinner flask (Bellco, USA), and the medium was changed every other da for 30-40 days. All culture operations were performed at 37° C. and 5% CO2. Other conditions were as previously reported (Abramovitch et al., Br. J. Cancer, 77:440-447, 1998; Abramovitch et al., Cancer Res., 55:1956-62, 1995). For the implantation of the cells, male CD1-nude mice, two months old and 30 g body weight, were anesthetized. A single tumor, about 1 mm in diameter, was implanted in each mouse stubcutaneously in the lower back at the site of a 4 mm incision, using a Teflon tubing, as reposed previously (Abramovitch et al., Br. J. Cancer, 77:440-447, 1998). The incision was formed with fine surgical scissors and closed with an adhesive bandage. The mice were then divided into six groups. One group received Halofuginone by oral administration as previously described. Four groups received different concentrations of Halofuginone through i.p. injections every other day (0.1, 0.5, 2 and 4 micrograms of Halofuginone per injection). One group received sham injections (no Halofuginone). MRI microimaging of the implanted tumor was performed on a horizontal 4.7 T Bruker-Biospec spectrometer using an actively RF decoupled surface coil, 2 cm in diameter, and a bird-cage transmission coil, as reported previously (Abramovitch et al., Br. J. Cancer, 77:440-447, 1998; and Abramovitch et al., Magn. Reson. Med., 39:813-824, 1998). Mice were anesthetized and placed supine with the tumor located at the center of the surface coil. Gradient echo images were acquired with a slice thickness of 0.5 mm, TE of 10 ms, TR of 230 ms and 256×256 pixels matrix resulting in in-plane resolution of 110 microns. Growth of the capillary bed was reflected by reduction of the mean intensity at a region of interest of 1 mm surrounding the tumor (Abramovitch et al., Br. J. Cancer, 77:440-447, 1998; and Abramovitch et al., Magn. Reson. Med., 39:813-824, 1998). At the end of the experimental period, the mice were sacrificed, and sections were obtained and prepared as previously described above. […] Such a result is surprising since wounds located less than 1 mm from a tumor implantation site have been previously shown not to heal rapidly.

[2] = test system: collagen type III; assay: Collagen type III immunohistochemistry at the stricture site; format: in vivo, rats; details: diet containing Halofuginone after coagulation current treatment
Procedure: Immunohistochemistry with antibodies to collagen type III was performed on biopsies taken from control, untreated rats, rats treated with coagulation current alone and rats fed a diet containing Halofuginone after coagulation current treatment. […] The experimental method was as follows. Rats were treated and sections of biopsy tissue were prepared as described previously in Example 4. Immunohistochemistry was performed with primary antibodies against collagen type III (BioGenex. San Ramon, Calif., USA) and a Histomouse SP kit (Zymed Laboratories Inc., South San Francisco, Calif., USA) for the secondary antibodies. The primary antibodies were used in a 1:1000 dilution and detection was performed with the Histomouse SP kit according to the instructions of the manufacturer.

[3] = test system: full depth incision in the skin; assay: Wound healing in irradiated and wounded mice (histology, collagen type I immunohistochemistry); format: in vivo; details: 1 mg per mouse i.p. every other day, 14 days
Procedure: The effect of Halofuginone on wound healing was examined by using mice which were first irradiated and then wounded.
The experiment was conducted as follows. First, C3H, defined-flora, pathogen-free female mice of 12-14 weeks of age were anesthetized with 60 mg/kg sodium […]. The mice were then shaved. One group of mice was then irradiated as follows. First, a flap of skin about 40 mm long and about 20 mm wide was pulled through a slit in the lead cover of an irradiation jig and secured with tape, so that only the flap of skin was exposed. This exposed skin as then irradiated by using a 175 kVp/20 mA orthovoltage X-ray source, with a 2 mm Cu filter at a dose rate of 1.0 Gy/min. A standard dose of 18 Gy was delivered.
All of the mice were then wounded by making a full depth incision, about 25 mm long, in the skin along the midline of the lower back. Note that for the irradiated animals, the wound was made within the irradiated area, immediately following irradiation. For all mice, the incision was immediately closed by 3-4 metallic wound closure clips which were removed 2 days later.
After wounding, the mice were injected i.p. every other day, either with 1 mg per mouse of Halofuginone or with saline as a control. […]

[4] = orally or 4 micrograms per i.p. injection
[5] = particularly at the highest dose (4 micrograms per i.p. injection)

## O=C(CC1NCCC[C@H]1O)Cn1cnc2cc(Br)c(Cl)cc2c1=O (stereo partly shown) [Halofuginone]
[1]; 4 micrograms per i.p. injection every other day
  complete re-epitheliazation (mice per group): 4 out of 5
[1]; administered orally
  complete re-epitheliazation (mice per group): 4 out of 5
[1]; all other groups (0.1, 0.5, 2 micrograms per i.p. injection; sham)
  re-epitheliazation (mice per group): 1 out of 5
[1]; [4]
  scarring at the site of the wound: no scarring
  wound healing despite presence of tumor: significantly improved wound healing
[1]; [5]
  collagen content: decreased
  expression of the collagen α1(I) gene: decreased
[2]
  levels of collagen type III: No significant changes
[3]; irradiated mouse (18 Gy)
  collagen content in the wound: significantly lowered
[3]; wounded and irradiated skin
  healing of the wound: the wound still healed
